# From article PMC5625161 (Pharmacology Research & Perspectives, 2017)
# Like-named read-outs stand apart in the source and are kept apart here. Marks after values point to notes of the source that are not given here.
# Key:
# Caco‐2 cell monolayers = experiment: Metformin apparent permeability across polarised Caco-2 cell monolayers with and without inhibitors; format: in vitro ADME; conditions: therapeutic intestinal concentrations of inhibitor
# Experimental: (§1) Caco‐2 cells between passage numbers 50–60 were used for experiments. Cells were seeded in cell culture medium (consisting of DMEM supplemented with 10% (w/v) fetal bovine serum, 2 mmol/L L‐glutamine, 1% (v/v) nonessential amino acids, 50 U/mL penicillin and 50 μg/mL streptomycin) onto Millicell‐96 multiwell insert plates at 1 × 10^5 cells/cm^2 and cultured at 37°C in an atmosphere of 5% CO2 with a relative humidity of 95 %. Media was changed every two or three days and plates were used for transport studies on day 20 postseeding. Cell monolayers were washed twice with prewarmed (37°C) transport buffer (HBSS containing 25 mmol/L HEPES and 4.45 mmol/L glucose, pH 7.4) for basolateral compartments and prewarmed MES‐transport buffer (HBSS containing 10 mmol/L MES and 4.45 mmol/L glucose, pH 6.5) for apical compartments. […] Transport buffer or MES‐transport buffer containing DMSO or test inhibitor was added to the corresponding receiver compartments. Donor and receiver solutions contained a final DMSO concentration of ≤1 % (v/v). […] The amount of lucifer yellow appearing in the receiver compartments was quantified on a fluorescence plate reader and used to calculate permeation across the cell monolayer.
# [1] = Perpetrator drug plasma Cmax in clinical interaction studies with metformin; format: in vivo, human; conditions: f u × C max
# [2] = target: T1, multidrug and toxin extrusion protein (MATE) 1 (SLC47A1) (Homo sapiens, UniProt Q96FL8); design: method as in Kusuhara et al. 2011; Ito et al. 2012; Müller et al. 2015; conditions: ref Kusuhara et al. 2011; Ito et al. 2012; Müller et al. 2015; cited from earlier work
# T1 sequence (Q96FL8 1-570): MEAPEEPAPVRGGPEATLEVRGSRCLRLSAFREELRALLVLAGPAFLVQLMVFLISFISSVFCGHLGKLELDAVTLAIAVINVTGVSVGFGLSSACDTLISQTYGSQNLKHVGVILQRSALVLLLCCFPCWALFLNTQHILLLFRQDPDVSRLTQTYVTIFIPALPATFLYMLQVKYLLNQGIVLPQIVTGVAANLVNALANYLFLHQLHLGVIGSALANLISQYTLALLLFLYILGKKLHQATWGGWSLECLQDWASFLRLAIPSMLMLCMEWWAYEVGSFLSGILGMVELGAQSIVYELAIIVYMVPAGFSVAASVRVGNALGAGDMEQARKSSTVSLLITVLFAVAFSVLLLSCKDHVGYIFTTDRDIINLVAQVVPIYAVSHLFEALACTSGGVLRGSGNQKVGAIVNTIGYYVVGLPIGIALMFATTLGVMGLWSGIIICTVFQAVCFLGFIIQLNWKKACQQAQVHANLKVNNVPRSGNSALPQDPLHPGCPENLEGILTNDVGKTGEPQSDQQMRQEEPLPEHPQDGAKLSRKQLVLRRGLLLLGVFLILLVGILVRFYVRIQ
# [3] = cited from earlier work
# [4] = cited from earlier work; for increase in the plasma exposure (AUC) of metformin in clinical DDIs: ref Somogyi et al. 1987, Wang et al. 2008, Grün et al. 2013, Müller et al. 2015, Kusuhara et al. 2011
# [5] = target: T2, human organic cation transporter (OCT) 1 (SLC22A1) (Homo sapiens, UniProt O15245); experiment: cell-based
# T2 sequence (O15245 1-554): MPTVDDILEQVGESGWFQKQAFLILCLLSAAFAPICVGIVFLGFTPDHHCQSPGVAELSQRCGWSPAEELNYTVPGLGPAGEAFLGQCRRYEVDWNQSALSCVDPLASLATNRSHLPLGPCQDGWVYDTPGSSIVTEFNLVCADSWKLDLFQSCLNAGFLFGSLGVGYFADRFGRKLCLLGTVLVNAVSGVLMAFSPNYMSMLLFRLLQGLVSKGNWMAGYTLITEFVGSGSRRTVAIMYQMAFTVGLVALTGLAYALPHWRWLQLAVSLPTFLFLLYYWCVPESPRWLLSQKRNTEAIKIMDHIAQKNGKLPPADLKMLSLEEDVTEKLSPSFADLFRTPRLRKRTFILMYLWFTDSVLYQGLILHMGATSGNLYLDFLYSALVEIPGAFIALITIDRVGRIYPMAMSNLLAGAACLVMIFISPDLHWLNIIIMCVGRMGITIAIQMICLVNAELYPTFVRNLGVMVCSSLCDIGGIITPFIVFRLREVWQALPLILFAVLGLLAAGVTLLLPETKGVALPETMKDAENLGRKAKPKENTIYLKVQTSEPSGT
# [6] = read-out: [C max] mean steady-state total plasma concentration, cited from earlier work
# [7] = target: T1, multidrug and toxin extrusion protein (MATE) 1 (SLC47A1); experiment: In vitro SLC transporter inhibition: MATE1-mediated [14C]-metformin uptake; format: cell-based
# [8] = Metformin apparent permeability across polarised Caco-2 cell monolayers with and without inhibitors; format: in vitro ADME; conditions: human, Caco-2, pH 6.5
# Experimental: as §1
# [9] = Metformin human mass balance and renal clearance; format: in vivo
# [10] = target: T1, multidrug and toxin extrusion protein (MATE) 1 (SLC47A1); conditions: MATE1-mediated metformin uptake, 1.5 min, 37°C; ±SE from fitting
# MATE2‐K (SLC47A2) = MATE2‐K (SLC47A2) (Homo sapiens, UniProt Q86VL8); conditions: MATE2-K-mediated metformin uptake, 1.5 min, 37°C; ±SE from fitting
# [11] = oral metformin human mass balance, average; ref Pentikäinen et al. 1979; Tucker et al. 1981; Kusuhara et al. 2011; cited from earlier work
# Mate1 = test system: Mate1; design: method as in Tsuda et al. 2009a; conditions: intravenous administration; ref Tsuda et al. 2009a; cited from earlier work
# Oct1/2 = test system: Oct1/2; design: method as in Higgins et al. 2012; conditions: oral administration; ref Higgins et al. 2012; cited from earlier work
# [12] = first-listed (or only) clinical study
# Chain of MATE2‐K (SLC47A2) (Q86VL8 1-566 isoform Q86VL8-3): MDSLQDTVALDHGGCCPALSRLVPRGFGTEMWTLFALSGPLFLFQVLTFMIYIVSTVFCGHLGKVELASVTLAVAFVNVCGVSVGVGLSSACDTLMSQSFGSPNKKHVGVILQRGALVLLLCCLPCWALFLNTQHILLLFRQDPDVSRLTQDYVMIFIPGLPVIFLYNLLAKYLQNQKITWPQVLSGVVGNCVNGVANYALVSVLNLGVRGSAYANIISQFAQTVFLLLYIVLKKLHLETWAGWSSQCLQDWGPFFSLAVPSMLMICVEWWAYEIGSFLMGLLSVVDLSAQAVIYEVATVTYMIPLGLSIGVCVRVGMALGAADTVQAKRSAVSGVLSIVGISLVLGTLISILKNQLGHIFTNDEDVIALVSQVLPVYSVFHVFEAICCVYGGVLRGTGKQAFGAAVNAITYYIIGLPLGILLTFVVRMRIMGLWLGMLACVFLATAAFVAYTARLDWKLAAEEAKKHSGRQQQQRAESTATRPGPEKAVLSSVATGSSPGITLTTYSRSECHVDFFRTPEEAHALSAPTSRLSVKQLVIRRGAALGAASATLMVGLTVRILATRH
structure (smiles),measurement,setting,value
"CN/C(=N/CCSCc1nc[nH]c1C)NC#N [Cimetidine, cimetidine]",effect on enhancing metformin absorptive permeability across Caco‐2 cells,Caco‐2 cell monolayers,absence of an effect
same,[C max free],[1]; [12],7.68 µM
same,[C max free],[1]; second-listed clinical study,4.08 µM
same,mode of inhibition of MATE1,[2],competitive inhibitors
same,f u (fraction unbound),[3]; ref Somogyi and Gugler (1983),0.80 ^a
same,increase in the plasma exposure (AUC) of metformin in clinical DDIs,[4],< 2 fold
same,IC50,[5],275 ± 32.2 µM
same,Cmax,"[6]; cimetidine 400 mg, first value, study with metformin 250 mg, ref Somogyi et al. (1987)",9.6 µM
same,Cmax,"[6]; cimetidine 400 mg, second value, study with metformin 500 mg, ref Wang et al. (2008)",5.1 µM
"CCc1nc(N)nc(N)c1-c1ccc(Cl)cc1 [Pyrimethamine, pyrimethamine]",MATE1 K i,"[7]; equates to IC50 (probe ≪≪ Km, assuming competitive inhibition)",0.131 µM
same,IC50 (≅K i) values MATE1,"[7]; probe [14C]-metformin 100 μmol/L, 1.5 min, mean ± SD of three experiments",0.131 ± 0.0401 µM
same,effect on enhancing metformin absorptive permeability across Caco‐2 cells,Caco‐2 cell monolayers,absence of an effect
same,[C max free],[1]; [12],0.298 µM
same,mode of inhibition of MATE1,[2],competitive inhibitors
same,increase in the plasma exposure (AUC) of metformin in clinical DDIs,[4],< 2 fold
same,IC50,[5],4.46 ± 0.77 µM
same,Cmax,"[6]; pyrimethamine 50 mg, study with metformin 250 mg, ref Kusuhara et al. (2011)",2.29 µM
"COc1cc(Cc2cnc(N)nc2N)cc(OC)c1OC [Trimethoprim, trimethoprim]",effect on enhancing metformin absorptive permeability across Caco‐2 cells,Caco‐2 cell monolayers,absence of an effect
same,[C max free],[1]; [12],7.84 µM
same,[C max free],[1]; second-listed clinical study,4.26 µM
same,f u (fraction unbound),[3]; ref Bactrim and Daraprim drug labels (Drugs@FDA database),0.56
same,increase in the plasma exposure (AUC) of metformin in clinical DDIs,[4],< 2 fold
"CN(C)C(=N)N=C(N)N [metformin, Metformin]",Papp A→B at 90 min,[8]; read-out: Papp A‐B (apical to basolateral),~0.5 ×10⁻⁶ cm/s
same,Papp B→A at 90 min,[8]; read-out: Papp B‐A (basolateral to apical),~0.5 ×10⁻⁶ cm/s
same,"fraction excreted value, ƒe, renal active transport",[9]; derived from intravenous administration of metformin,0.66
same,"fraction excreted value, ƒe, renal active transport",[9]; derived from oral administration of metformin,0.39
same,K m,[10],4.565 ± 0.903 mM
same,V max,[10],141000 ± 12283 pmol/min/mg protein
same,K m,MATE2‐K (SLC47A2),2.986 ± 0.817 mM
same,V max,MATE2‐K (SLC47A2),32147 ± 3401 pmol/min/mg protein
same,share of the dose eliminated in urine,[11],52%
same,increase in metformin AUC in Mate1(−/−) null mice compared with wildtype,Mate1,4.2 fold
same,increase in metformin AUC in Oct1/2(−/−) mice,Oct1/2,2.9 fold
CNC(=C[N+](=O)[O-])NCCSCc1csc(CN(C)C)n1 [nizatidine],effect on metformin AUC in clinical interaction study,[4]; ref Morrissey et al. 2016,did not increase metformin AUC
